Measured values from the NIST ThermoML archive (doi:10.1021/je049777o).
Values joined by “and” are separate entries in the source; they are usually repeats but may differ in a detail not shown here. Equal values may be shown once. ± gives the expanded uncertainty stated by the source.

Assays:
[1] = 101.3 kPa, Liquid
[2] = xn = mol fraction of the nth substance listed; details: 101.3 kPa, Liquid

| Compound | mass density ([1]; 293.15 K) | viscosity ([1]; 293.15 K) | mass density ([1]; 298.15 K) | viscosity ([1]; 298.15 K) | mass density ([1]; 303.15 K) | viscosity ([1]; 303.15 K) | mass density ([1]; 313.15 K) | viscosity ([1]; 313.15 K) | mass density ([1]; 323.15 K) | viscosity ([1]; 323.15 K) | mass density ([1]; 333.15 K) | viscosity ([1]; 333.15 K) | mass density ([1]; 343.15 K) | viscosity ([1]; 343.15 K) | further results |
| --- | --- | --- | --- | --- | --- | --- | --- | --- | --- | --- | --- | --- | --- | --- | --- |
| CCCCCCC [heptane] | 687.14 ± 0.71 kg/m3 | 0.4038 ± 0.0083 mPa·s | 682.91 ± 0.71 kg/m3 | 0.3831 ± 0.0082 mPa·s | 678.61 ± 0.71 kg/m3 | 0.3629 ± 0.008 mPa·s | 669.91 ± 0.72 kg/m3 | 0.3274 ± 0.0078 mPa·s | 661.16 ± 0.73 kg/m3 | 0.298 ± 0.0076 mPa·s | 652.26 ± 0.75 kg/m3 | 0.2704 ± 0.0074 mPa·s | 643.31 ± 0.76 kg/m3 | 0.2487 ± 0.0072 mPa·s |  |
| CCCCCC [hexane] + COC(=O)OC |  |  |  |  |  |  |  |  |  |  |  |  |  |  | mass density ([2]; 293.15 K, x2 = 0): 662 ± 0.67 kg/m3; viscosity ([2]; 293.15 K, x2 = 0): 0.302 ± 0.0075 mPa·s; mass density ([2]; 298.15 K, x2 = 0): 657.44 ± 0.68 kg/m3; viscosity ([2]; 298.15 K, x2 = 0): 0.2886 ± 0.0074 mPa·s; mass density ([2]; 303.15 K, x2 = 0): 652.87 ± 0.69 kg/m3; viscosity ([2]; 303.15 K, x2 = 0): 0.2774 ± 0.0073 mPa·s; mass density ([2]; 313.15 K, x2 = 0): 643.55 ± 0.7 kg/m3; viscosity ([2]; 313.15 K, x2 = 0): 0.2504 ± 0.0072 mPa·s; mass density ([2]; 323.15 K, x2 = 0): 634.07 ± 0.71 kg/m3; viscosity ([2]; 323.15 K, x2 = 0): 0.2339 ± 0.0071 mPa·s; mass density ([2]; 333.15 K, x2 = 0): 624.39 ± 0.73 kg/m3; viscosity ([2]; 333.15 K, x2 = 0): 0.2114 ± 0.007 mPa·s |
| CCCCCC [hexane] | 662 ± 0.67 kg/m3 | 0.302 ± 0.0075 mPa·s | 657.44 ± 0.68 kg/m3 | 0.2886 ± 0.0074 mPa·s | 652.87 ± 0.69 kg/m3 | 0.2774 ± 0.0073 mPa·s | 643.55 ± 0.7 kg/m3 | 0.2504 ± 0.0072 mPa·s | 634.07 ± 0.71 kg/m3 | 0.2339 ± 0.0071 mPa·s | 624.39 ± 0.73 kg/m3 | 0.2114 ± 0.007 mPa·s |  |  |  |
| Clc1ccccc1 [chlorobenzene] | 1106.74 ± 0.4 kg/m3 | 0.8084 ± 0.021 mPa·s | 1101.33 ± 0.4 kg/m3 | 0.7422 ± 0.019 mPa·s | 1095.96 ± 0.39 kg/m3 | 0.7053 ± 0.018 mPa·s | 1085.06 ± 0.38 kg/m3 | 0.631 ± 0.017 mPa·s | 1074.26 ± 0.36 kg/m3 | 0.5677 ± 0.015 mPa·s | 1063.32 ± 0.35 kg/m3 | 0.5069 ± 0.014 mPa·s | 1052.44 ± 0.34 kg/m3 | 0.4658 ± 0.013 mPa·s |  |
| COC(=O)OC [dimethyl carbonate] + Clc1ccccc1 |  |  |  |  |  |  |  |  |  |  |  |  |  |  | mass density ([2]; 293.15 K, x1 = 1): 1069.54 ± 0.24 kg/m3; viscosity ([2]; 293.15 K, x1 = 1): 0.6163 ± 0.016 mPa·s; mass density ([2]; 298.15 K, x1 = 1): 1062.95 ± 0.23 kg/m3; viscosity ([2]; 298.15 K, x1 = 1): 0.5771 ± 0.016 mPa·s; mass density ([2]; 303.15 K, x1 = 1): 1056.35 ± 0.23 kg/m3; viscosity ([2]; 303.15 K, x1 = 1): 0.5433 ± 0.015 mPa·s; mass density ([2]; 313.15 K, x1 = 1): 1043.01 ± 0.21 kg/m3; viscosity ([2]; 313.15 K, x1 = 1): 0.482 ± 0.014 mPa·s; mass density ([2]; 323.15 K, x1 = 1): 1029.59 ± 0.19 kg/m3; viscosity ([2]; 323.15 K, x1 = 1): 0.4319 ± 0.013 mPa·s; mass density ([2]; 333.15 K, x1 = 1): 1016 ± 0.18 kg/m3; viscosity ([2]; 333.15 K, x1 = 1): 0.3893 ± 0.012 mPa·s; mass density ([2]; 343.15 K, x1 = 1): 1002.32 ± 0.16 kg/m3; viscosity ([2]; 343.15 K, x1 = 1): 0.3527 ± 0.011 mPa·s |
| COC(=O)OC [dimethyl carbonate] | 1069.54 ± 0.24 kg/m3 | 0.6163 ± 0.016 mPa·s and 0.6173 ± 0.0096 mPa·s | 1062.95 ± 0.23 kg/m3 | 0.5771 ± 0.016 mPa·s and 0.5734 ± 0.0093 mPa·s | 1056.35 ± 0.23 kg/m3 | 0.5433 ± 0.015 mPa·s and 0.5403 ± 0.009 mPa·s | 1043.01 ± 0.21 kg/m3 | 0.482 ± 0.014 mPa·s and 0.4807 ± 0.0086 mPa·s | 1029.59 ± 0.19 kg/m3 | 0.4319 ± 0.013 mPa·s and 0.427 ± 0.0082 mPa·s | 1016 ± 0.18 kg/m3 | 0.3893 ± 0.012 mPa·s | 1002.32 ± 0.16 kg/m3 | 0.3527 ± 0.011 mPa·s |  |
| CCCCCCC [heptane] + COC(=O)OC |  |  |  |  |  |  |  |  |  |  |  |  |  |  | mass density ([2]; 293.15 K, x2 = 0): 687.14 ± 0.71 kg/m3; viscosity ([2]; 293.15 K, x2 = 0): 0.4038 ± 0.0083 mPa·s; mass density ([2]; 298.15 K, x2 = 0): 682.91 ± 0.71 kg/m3; viscosity ([2]; 298.15 K, x2 = 0): 0.3831 ± 0.0082 mPa·s; mass density ([2]; 303.15 K, x2 = 0): 678.61 ± 0.71 kg/m3; viscosity ([2]; 303.15 K, x2 = 0): 0.3629 ± 0.008 mPa·s; mass density ([2]; 313.15 K, x2 = 0): 669.91 ± 0.72 kg/m3; viscosity ([2]; 313.15 K, x2 = 0): 0.3274 ± 0.0078 mPa·s; mass density ([2]; 323.15 K, x2 = 0): 661.16 ± 0.73 kg/m3; viscosity ([2]; 323.15 K, x2 = 0): 0.298 ± 0.0076 mPa·s; mass density ([2]; 333.15 K, x2 = 0): 652.26 ± 0.75 kg/m3; viscosity ([2]; 333.15 K, x2 = 0): 0.2704 ± 0.0074 mPa·s; mass density ([2]; 343.15 K, x2 = 0): 643.31 ± 0.76 kg/m3; viscosity ([2]; 343.15 K, x2 = 0): 0.2487 ± 0.0072 mPa·s |
